Assay results taken from patent US7361671B2, “Substituted heteroarylalkanoic acids” (The Institute for Pharmaceutical Discovery, Inc., priority 2001, dated 2008).
Counter-ions that a name gives are not always drawn.

Columns and labels:
[1] = target: human aldose reductase (hALR2) (Homo sapiens, UniProt P15121); assay: inhibition of human aldose reductase (hALR2) activity, methods similar to Butera et al.; type: biochemical; settings: concentration to inhibit activity by 50%, read-out: hAR-#1 (aldose)
Experimental: Representative compounds of the invention are tested for their potency, selectivity and efficacy as inhibitors of human aldose reductase. […] Using this assay, the concentrations required to inhibit human aldose reductase (hALR2) activity by 50% (IC50) are determined.

[2] = system: urinary excretion of uric acid; assay: Uricosuric activity in the chimpanzee: amount of uric acid excreted in the urine; type: in vivo; settings: single oral 4 mg/kg dose; for Amount of uric acid excreted in the urine in 24 hour intervals, mean: mean of chimps
Experimental: (§1) Compound of Example 14 was administered to chimpanzees orally as a single 4 mg/kg does. While four animals were dosed, complete data was not collected for one animal (Chimp #4), as an adverse reaction to anesthesia required early termination of this animal from the study.

blood uric acid levels = assay: Uricosuric activity in the chimpanzee: concentrations of uric acid in serum; type: in vivo; settings: single oral 4 mg/kg dose; for Concentrations of uric acid in serum, mean: mean of chimps
Experimental: as §1

Structure (SMILES): O=C(O)Cc1cc(Cc2nc3cc(C(F)(F)F)ccc3s2)cs1 (as salt: hydrochloride)
- melting point: 131 to 132 °C

Structure (SMILES): O=C(O)Cc1cncc(Cc2nc3c(F)c(F)cc(F)c3s2)c1 (as salt: hydrochloride) [Example 8, 5-(4,5,7-trifluoro-benzothiazol-2-ylmethyl)-pyridin-3-yl-acetic acid hydrochloride]
- melting point: 196 to 197 °C

Structure (SMILES): Cc1ccc2c(Cc3nc4c(F)c(F)cc(F)c4s3)cn(CC(=O)O)c2n1 [Example 2, [6-methyl-3-(4,5,7-trifluoro-benzothiazol-2-ylmethyl)-pyrrolo[2,3-b]pyridin-1-yl]-acetic acid]
- IC50 [1]: 8 nM

Structure (SMILES): O=C(O)Cc1cncc(Cc2nc3c(F)c(F)cc(F)c3s2)c1 [Example 8, 5-(4,5,7-trifluoro-benzothiazol-2-ylmethyl)-pyridin-3-yl-acetic acid hydrochloride]
- IC50 [1]: 8 nM

Structure (SMILES): Cc1nc(C)c(Cc2nc3c(F)c(F)cc(F)c3s2)c(C)c1CC(=O)O [Example 9, 2,4,6-trimethyl-5-(4,5,7-trifluoro-benzothiazol-2-ylmethyl)-pyridin-3-yl-acetic acid hydrochloride]
- IC50 [1]: 6 nM

Structure (SMILES): CCc1c(CC(=O)O)c(C)nc(C)c1Cc1nc2c(F)c(F)cc(F)c2s1 [Example 10, 2,6-dimethyl-4-ethyl-5-(4,5,7-trifluoro-benzothiazol-2-ylmethyl)-pyridin-3-yl-acetic acid hydrochloride]
- IC50 [1]: 31 nM

Structure (SMILES): CCc1ncc(Cc2nc3c(F)c(F)cc(F)c3s2)cc1CC(=O)O [Example 11, 2-ethyl-5-(4,5,7-trifluoro-benzothiazol-2-ylmethyl)-pyridin-3-yl-acetic acid hydrochloride]
- IC50 [1]: 6 nM

Structure (SMILES): O=C(O)Cc1cc(Cc2nc3c(F)c(F)cc(F)c3s2)cnc1Cc1ccccc1 [Example 12, 2-benzyl-5-(4,5,7-trifluoro-benzothiazol-2-ylmethyl)-pyridin-3-yl-acetic acid hydrochloride]
- IC50 [1]: 5 nM

Structure (SMILES): O=C(O)Cc1cc(Cc2nc3c(F)c(F)cc(F)c3s2)cnc1-c1ccccc1 [Example 13, 2-phenyl-5-(4,5,7-trifluoro-benzothiazol-2-ylmethyl)-pyridin-3-yl-acetic acid hydrochloride]
- IC50 [1]: 8 nM

Structure (SMILES): CCc1ncc(CC(=O)O)cc1Cc1nc2c(F)c(F)cc(F)c2s1 [Example 14, 6-ethyl-5-(4,5,7-trifluoro-benzothiazol-2-ylmethyl)-pyridin-3-yl-acetic acid hydrochloride]
- Amount of uric acid excreted in the urine in 24 hour intervals ([2]; Chimp #1, 0-24 hours): 1020 mg
- Amount of uric acid excreted in the urine in 24 hour intervals ([2]; Chimp #1, 24-48 hours): 686 mg
- Amount of uric acid excreted in the urine in 24 hour intervals ([2]; Chimp #1, 48-72 hours): 657 mg
- Amount of uric acid excreted in the urine in 24 hour intervals ([2]; Chimp #1, Baseline): 321 mg
- Amount of uric acid excreted in the urine in 24 hour intervals ([2]; Chimp #2, 0-24 hours): 758 mg
- Amount of uric acid excreted in the urine in 24 hour intervals ([2]; Chimp #2, 24-48 hours): 399 mg
- Amount of uric acid excreted in the urine in 24 hour intervals ([2]; Chimp #2, 48-72 hours): 290 mg
- Amount of uric acid excreted in the urine in 24 hour intervals ([2]; Chimp #2, Baseline): 474 mg
- Amount of uric acid excreted in the urine in 24 hour intervals ([2]; Chimp #3, 0-24 hours): 843 mg
- Amount of uric acid excreted in the urine in 24 hour intervals ([2]; Chimp #3, 24-48 hours): 189 mg
- Amount of uric acid excreted in the urine in 24 hour intervals ([2]; Chimp #3, 48-72 hours): 216 mg
- Amount of uric acid excreted in the urine in 24 hour intervals ([2]; Chimp #3, Baseline): 347 mg
- Amount of uric acid excreted in the urine in 24 hour intervals ([2]; Chimp #4, Baseline): 450 mg
- urinary excretion of uric acid ([2]; chimpanzee, over the first 24 hours following dosage): concomitant increase in the urinary excretion of uric acid
- Amount of uric acid excreted in the urine in 24 hour intervals, mean ([2]; 0-24 hours): 874 mg
- Amount of uric acid excreted in the urine in 24 hour intervals, mean ([2]; 24-48 hours): 425 mg
- Amount of uric acid excreted in the urine in 24 hour intervals, mean ([2]; 48-72 hours): 388 mg
- Amount of uric acid excreted in the urine in 24 hour intervals, mean ([2]; Baseline): 398 mg
- Concentrations of uric acid in serum (blood uric acid levels; Chimp #1, 0 hours): 3.0 mg/dL
- Concentrations of uric acid in serum (blood uric acid levels; Chimp #1, 0.25 hours): 3.0 mg/dL
- Concentrations of uric acid in serum (blood uric acid levels; Chimp #1, 0.50 hours): 3.0 mg/dL
- Concentrations of uric acid in serum (blood uric acid levels; Chimp #1, 1.0 hours): 3.0 mg/dL
- Concentrations of uric acid in serum (blood uric acid levels; Chimp #1, 2.0 hours): 2.8 mg/dL
- Concentrations of uric acid in serum (blood uric acid levels; Chimp #1, 6.0 hours): 2.2 mg/dL
- Concentrations of uric acid in serum (blood uric acid levels; Chimp #1, 12 hours): 1.9 mg/dL
- Concentrations of uric acid in serum (blood uric acid levels; Chimp #1, 24 hours): 2.3 mg/dL
- Concentrations of uric acid in serum (blood uric acid levels; Chimp #1, 48 hours): 3.4 mg/dL
- Concentrations of uric acid in serum (blood uric acid levels; Chimp #1, 72 hours): 3.2 mg/dL
- Concentrations of uric acid in serum (blood uric acid levels; Chimp #1, Baseline): 2.9 mg/dL
- Concentrations of uric acid in serum (blood uric acid levels; Chimp #2, 0 hours): 1.7 mg/dL
- Concentrations of uric acid in serum (blood uric acid levels; Chimp #2, 0.25 hours): 1.8 mg/dL
- Concentrations of uric acid in serum (blood uric acid levels; Chimp #2, 0.50 hours): 1.8 mg/dL
- Concentrations of uric acid in serum (blood uric acid levels; Chimp #2, 1.0 hours): 1.8 mg/dL
- Concentrations of uric acid in serum (blood uric acid levels; Chimp #2, 2.0 hours): 1.7 mg/dL
- Concentrations of uric acid in serum (blood uric acid levels; Chimp #2, 6.0 hours): 1.2 mg/dL
- Concentrations of uric acid in serum (blood uric acid levels; Chimp #2, 12 hours): 0.9 mg/dL
- Concentrations of uric acid in serum (blood uric acid levels; Chimp #2, 24 hours): 1.4 mg/dL
- Concentrations of uric acid in serum (blood uric acid levels; Chimp #2, 48 hours): 1.2 mg/dL
- Concentrations of uric acid in serum (blood uric acid levels; Chimp #2, 72 hours): 1.4 mg/dL
- Concentrations of uric acid in serum (blood uric acid levels; Chimp #2, Baseline): 1.9 mg/dL
- Concentrations of uric acid in serum (blood uric acid levels; Chimp #3, 0 hours): 2.2 mg/dL
- Concentrations of uric acid in serum (blood uric acid levels; Chimp #3, 0.25 hours): 2.3 mg/dL
- Concentrations of uric acid in serum (blood uric acid levels; Chimp #3, 0.50 hours): 2.3 mg/dL
- Concentrations of uric acid in serum (blood uric acid levels; Chimp #3, 1.0 hours): 2.1 mg/dL
- Concentrations of uric acid in serum (blood uric acid levels; Chimp #3, 2.0 hours): 1.9 mg/dL
- Concentrations of uric acid in serum (blood uric acid levels; Chimp #3, 6.0 hours): 1.6 mg/dL
- Concentrations of uric acid in serum (blood uric acid levels; Chimp #3, 12 hours): 1.6 mg/dL
- Concentrations of uric acid in serum (blood uric acid levels; Chimp #3, 24 hours): 1.9 mg/dL
- Concentrations of uric acid in serum (blood uric acid levels; Chimp #3, 48 hours): 1.9 mg/dL
- Concentrations of uric acid in serum (blood uric acid levels; Chimp #3, 72 hours): 2.4 mg/dL
- Concentrations of uric acid in serum (blood uric acid levels; Chimp #3, Baseline): 2.3 mg/dL
- Concentrations of uric acid in serum (blood uric acid levels; Chimp #4, 0 hours): 2.5 mg/dL
- Concentrations of uric acid in serum (blood uric acid levels; Chimp #4, 0.25 hours): 2.6 mg/dL
- Concentrations of uric acid in serum (blood uric acid levels; Chimp #4, 0.50 hours): 2.5 mg/dL
- Concentrations of uric acid in serum (blood uric acid levels; Chimp #4, 1.0 hours): 2.7 mg/dL
- Concentrations of uric acid in serum (blood uric acid levels; Chimp #4, 2.0 hours): 2.3 mg/dL
- Concentrations of uric acid in serum (blood uric acid levels; Chimp #4, 6.0 hours): 1.8 mg/dL
- Concentrations of uric acid in serum (blood uric acid levels; Chimp #4, 12 hours): 1.7 mg/dL
- Concentrations of uric acid in serum (blood uric acid levels; Chimp #4, Baseline): 2.5 mg/dL
- maximal lowering of blood uric acid levels (blood uric acid levels; chimpanzee, average of three animals, at approximately 12 hours following dosage): about 44%
- uricosuric effect (blood uric acid levels; chimpanzee, data from three animals): clear uricosuric effect
- Concentrations of uric acid in serum, mean (blood uric acid levels; 0 hours): 2.4 mg/dL
- Concentrations of uric acid in serum, mean (blood uric acid levels; 0.25 hours): 2.4 mg/dL
- Concentrations of uric acid in serum, mean (blood uric acid levels; 0.50 hours): 2.4 mg/dL
- Concentrations of uric acid in serum, mean (blood uric acid levels; 1.0 hours): 2.4 mg/dL
- Concentrations of uric acid in serum, mean (blood uric acid levels; 2.0 hours): 2.2 mg/dL
- Concentrations of uric acid in serum, mean (blood uric acid levels; 6.0 hours): 1.7 mg/dL
- Concentrations of uric acid in serum, mean (blood uric acid levels; 12 hours): 1.5 mg/dL
- Concentrations of uric acid in serum, mean (blood uric acid levels; 24 hours): 1.9 mg/dL
- Concentrations of uric acid in serum, mean (blood uric acid levels; 48 hours): 2.2 mg/dL
- Concentrations of uric acid in serum, mean (blood uric acid levels; 72 hours): 2.3 mg/dL
- Concentrations of uric acid in serum, mean (blood uric acid levels; Baseline): 2.4 mg/dL
- IC50 [1]: 7 nM

Structure (SMILES): O=C(O)Cc1cnc(-c2ccccc2)c(Cc2nc3c(F)c(F)cc(F)c3s2)c1 [Example 15, 6-Phenyl-5-(4,5,7-trifluoro-benzothiazol-2-ylmethyl)-pyridin-3-yl-acetic acid hydrochloride]
- IC50 [1]: 6 nM

Structure (SMILES): O=C(O)Cc1cnc(Cc2ccccc2)c(Cc2nc3c(F)c(F)cc(F)c3s2)c1 [Example 16, 6-Benzyl-5-(4,5,7-trifluoro-benzothiazol-2-ylmethyl)-pyridin-3-yl-acetic acid hydrochloride]
- IC50 [1]: 7 nM

Structure (SMILES): Cc1c(CC(=O)O)csc1Cc1nc2c(F)c(F)cc(F)c2s1 [Example 24, [4-methyl-5-(4,5,7-trifluoro-benzothiazol-2-ylmethyl)-thiophen-3-yl]-acetic acid]
- IC50 [1]: 31 nM

Structure (SMILES): O=C(O)Cc1csc(Cc2nc3c(F)c(F)cc(F)c3s2)n1 [Example 25, [2-(4,5,7-Trifluoro-benzothiazol-2-ylmethyl)-thiazol-4-yl]-acetic acid]
- IC50 [1]: 130 nM
